Data taken from patent US8871753B2, “Macrocyclic compounds and their use as kinase inhibitors” (Incyte Corporation, priority 2008, dated 2014).
pIC50: −log10 of the molar value. Structures can show the parent of a compound that is named as a salt.

Columns and labels:
Type in all cases: biochemical
[1] = target: T1, human JAK2 (a.a. 828-1132) (Homo sapiens, UniProt O60674); assay: In vitro JAK kinase assay (HTRF, phosphorylation of a biotinylated peptide), JAK2; conditions: method AA1 (30 μM ATP) or AA2 (1000 μM ATP), not stated per value
T1 construct: JAK2 (a.a. 828-1132); His tag (N); made in house; host or cells: insect cells (baculovirus)
T1 sequence (O60674 828-1132): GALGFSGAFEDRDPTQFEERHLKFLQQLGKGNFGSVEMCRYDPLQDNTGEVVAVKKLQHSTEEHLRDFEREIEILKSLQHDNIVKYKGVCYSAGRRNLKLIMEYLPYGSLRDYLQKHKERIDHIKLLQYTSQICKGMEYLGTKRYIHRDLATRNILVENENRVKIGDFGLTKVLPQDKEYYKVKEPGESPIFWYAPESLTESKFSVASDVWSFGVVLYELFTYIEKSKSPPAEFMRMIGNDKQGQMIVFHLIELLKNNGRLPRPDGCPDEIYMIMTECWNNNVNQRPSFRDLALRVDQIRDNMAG
How it was run: (§1)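 Kinase activity was measured as phosphorylation of a biotinylated peptide, with ATP at 90 μM for JAK1, 30 μM for JAK2 and 3 μM for JAK3. Reactions ran 1 hr at room temperature, were stopped with EDTA plus SA-APC and Eu-Py20, and were read by HTRF after 40 minutes of antibody binding.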

[2] = target: T2, human JAK1 (a.a. 837-1142) (Homo sapiens, UniProt P23458); assay: In vitro JAK kinase assay (HTRF, phosphorylation of a biotinylated peptide), JAK1; conditions: method AA1 (90 μM ATP) or AA2 (1000 μM ATP), not stated per value; read-out: JAK1 IC50
T2 construct: human JAK1 (a.a. 837-1142); His tag (N); made in house; host or cells: insect cells (baculovirus)
T2 sequence (P23458 849-1154): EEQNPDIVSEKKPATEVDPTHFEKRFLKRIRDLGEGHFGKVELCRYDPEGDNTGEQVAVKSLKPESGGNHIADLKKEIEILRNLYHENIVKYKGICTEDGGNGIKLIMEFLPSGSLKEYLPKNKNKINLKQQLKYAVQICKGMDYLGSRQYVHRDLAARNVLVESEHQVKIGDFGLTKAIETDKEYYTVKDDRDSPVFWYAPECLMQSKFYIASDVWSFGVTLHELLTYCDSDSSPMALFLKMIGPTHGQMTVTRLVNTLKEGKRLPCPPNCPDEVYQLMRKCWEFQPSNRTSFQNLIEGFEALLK
How it was run: as §1

[3] = target: T3, human JAK3 (a.a. 781-1124) (Homo sapiens, UniProt P52333); assay: In vitro JAK kinase assay (HTRF, phosphorylation of a biotinylated peptide), JAK3; conditions: method AA1 (3 μM ATP) or AA2 (1000 μM ATP), not stated per value
T3 construct: JAK3 (a.a. 781-1124); His tag (N); made in house; host or cells: insect cells (baculovirus)
T3 sequence (P52333 781-1124): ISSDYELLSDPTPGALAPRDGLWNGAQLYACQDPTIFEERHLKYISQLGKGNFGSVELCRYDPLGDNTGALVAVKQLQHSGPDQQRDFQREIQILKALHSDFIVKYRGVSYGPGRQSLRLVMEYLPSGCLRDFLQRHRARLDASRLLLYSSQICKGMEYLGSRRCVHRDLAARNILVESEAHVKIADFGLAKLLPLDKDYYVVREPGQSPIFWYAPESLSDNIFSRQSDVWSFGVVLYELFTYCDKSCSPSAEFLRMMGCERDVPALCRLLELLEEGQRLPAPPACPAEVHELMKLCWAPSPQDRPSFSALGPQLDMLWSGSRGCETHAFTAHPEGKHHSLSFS
How it was run: as §1

TYK2 = TYK2 (Homo sapiens, UniProt P29597); assay: TYK2 kinase inhibition (Table A1)
Chain of TYK2 (P29597 whole entry): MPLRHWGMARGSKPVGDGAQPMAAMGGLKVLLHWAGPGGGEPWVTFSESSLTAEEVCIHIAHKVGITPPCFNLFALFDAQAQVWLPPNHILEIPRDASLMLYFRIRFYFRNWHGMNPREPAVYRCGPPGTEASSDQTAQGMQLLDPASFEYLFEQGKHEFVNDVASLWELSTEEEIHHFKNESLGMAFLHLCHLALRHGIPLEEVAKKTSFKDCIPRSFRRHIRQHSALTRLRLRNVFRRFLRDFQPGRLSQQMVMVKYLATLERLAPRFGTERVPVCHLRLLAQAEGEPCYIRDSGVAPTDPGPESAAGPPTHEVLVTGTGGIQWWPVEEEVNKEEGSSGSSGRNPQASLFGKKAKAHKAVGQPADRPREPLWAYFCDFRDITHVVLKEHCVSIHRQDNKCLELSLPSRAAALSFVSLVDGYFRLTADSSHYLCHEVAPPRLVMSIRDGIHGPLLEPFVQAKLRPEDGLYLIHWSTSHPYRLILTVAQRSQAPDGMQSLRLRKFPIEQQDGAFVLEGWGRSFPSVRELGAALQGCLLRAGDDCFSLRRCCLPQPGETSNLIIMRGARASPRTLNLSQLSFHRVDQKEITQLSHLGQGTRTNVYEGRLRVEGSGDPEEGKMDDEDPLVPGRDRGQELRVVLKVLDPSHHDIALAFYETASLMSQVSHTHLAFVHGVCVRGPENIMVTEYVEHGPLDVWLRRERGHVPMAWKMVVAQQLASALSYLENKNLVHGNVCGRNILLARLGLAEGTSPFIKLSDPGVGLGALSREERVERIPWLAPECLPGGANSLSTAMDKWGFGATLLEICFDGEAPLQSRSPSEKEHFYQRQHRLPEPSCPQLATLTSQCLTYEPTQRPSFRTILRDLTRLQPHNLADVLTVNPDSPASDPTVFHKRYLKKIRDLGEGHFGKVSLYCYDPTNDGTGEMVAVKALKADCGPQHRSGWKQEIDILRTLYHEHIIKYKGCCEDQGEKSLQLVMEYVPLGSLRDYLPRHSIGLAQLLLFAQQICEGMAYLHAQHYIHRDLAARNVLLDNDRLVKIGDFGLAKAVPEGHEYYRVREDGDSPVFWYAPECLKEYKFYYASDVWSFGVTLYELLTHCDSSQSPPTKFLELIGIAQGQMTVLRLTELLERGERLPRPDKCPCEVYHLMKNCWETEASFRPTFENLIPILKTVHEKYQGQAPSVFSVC

[4] = target: T4, Recombinant Human Anaplastic Lymphoma Kinase (Homo sapiens, UniProt Q9UM73); assay: ALK HTRF kinase assay; conditions: compound at 500 nM or 1 mM; 90 μM ATP
T4 construct: purchased Invitrogen, Carlsbad, Calif
T4 sequence (Q9UM73 19-1620): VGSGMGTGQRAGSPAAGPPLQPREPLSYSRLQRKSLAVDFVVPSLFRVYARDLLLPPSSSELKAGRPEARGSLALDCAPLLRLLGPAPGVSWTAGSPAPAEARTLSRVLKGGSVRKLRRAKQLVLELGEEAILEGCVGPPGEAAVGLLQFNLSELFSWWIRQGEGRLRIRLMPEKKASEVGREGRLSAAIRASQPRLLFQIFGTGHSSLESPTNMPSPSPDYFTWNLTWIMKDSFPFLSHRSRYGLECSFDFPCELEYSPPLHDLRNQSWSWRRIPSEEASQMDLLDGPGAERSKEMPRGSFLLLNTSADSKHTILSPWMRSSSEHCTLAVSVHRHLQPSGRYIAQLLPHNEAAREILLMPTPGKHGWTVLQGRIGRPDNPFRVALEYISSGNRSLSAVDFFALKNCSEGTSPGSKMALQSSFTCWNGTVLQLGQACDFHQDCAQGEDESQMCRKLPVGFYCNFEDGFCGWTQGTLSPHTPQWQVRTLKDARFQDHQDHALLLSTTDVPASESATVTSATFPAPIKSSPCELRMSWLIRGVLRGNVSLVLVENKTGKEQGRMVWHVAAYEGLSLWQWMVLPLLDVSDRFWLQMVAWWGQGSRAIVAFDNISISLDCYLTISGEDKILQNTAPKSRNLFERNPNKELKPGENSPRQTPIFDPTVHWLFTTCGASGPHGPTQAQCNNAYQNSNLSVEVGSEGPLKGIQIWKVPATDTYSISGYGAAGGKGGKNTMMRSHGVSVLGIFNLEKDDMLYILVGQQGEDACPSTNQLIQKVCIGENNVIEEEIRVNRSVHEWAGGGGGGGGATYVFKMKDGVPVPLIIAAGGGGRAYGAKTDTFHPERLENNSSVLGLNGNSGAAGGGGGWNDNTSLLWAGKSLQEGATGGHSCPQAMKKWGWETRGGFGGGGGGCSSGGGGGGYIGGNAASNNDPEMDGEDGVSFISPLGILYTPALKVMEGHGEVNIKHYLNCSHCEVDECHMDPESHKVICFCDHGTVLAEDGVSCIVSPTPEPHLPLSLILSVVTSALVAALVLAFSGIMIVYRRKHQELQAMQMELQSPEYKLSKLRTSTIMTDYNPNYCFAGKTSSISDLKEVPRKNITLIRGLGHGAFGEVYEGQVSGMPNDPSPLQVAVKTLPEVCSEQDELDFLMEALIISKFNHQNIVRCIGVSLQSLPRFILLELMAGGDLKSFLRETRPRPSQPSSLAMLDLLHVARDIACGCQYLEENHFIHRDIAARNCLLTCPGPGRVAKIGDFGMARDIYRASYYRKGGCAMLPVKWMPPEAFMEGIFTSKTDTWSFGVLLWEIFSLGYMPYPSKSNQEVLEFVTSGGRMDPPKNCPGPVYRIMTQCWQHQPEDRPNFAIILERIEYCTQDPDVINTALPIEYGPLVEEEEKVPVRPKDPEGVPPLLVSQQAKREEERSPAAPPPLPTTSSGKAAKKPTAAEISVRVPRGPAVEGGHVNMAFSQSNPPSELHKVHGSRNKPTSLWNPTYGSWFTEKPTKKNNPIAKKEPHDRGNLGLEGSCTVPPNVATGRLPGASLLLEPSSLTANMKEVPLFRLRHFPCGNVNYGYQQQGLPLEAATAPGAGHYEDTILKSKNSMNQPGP
How it was run: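 Biotinylated peptide substrate, recombinant human ALK; detection via europium-chelate antibody to phosphotyrosine paired with streptavidin-APC. Potency expressed as IC50 from four-parameter curve fitting.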

Row | SMILES | pIC50 [1] | pIC50 [2] | pIC50 [3] | pIC50 (TYK2) | ALK % of inhibition at a concentration of 500 nM or 1 mM [4]
1 | Cn1ccc2c(NC(=O)N3CCC(C(=O)Nc4ccc5cc4CCc4cccc(c4)Nc4ncc(Cl)c(n4)N5)CC3)cccc21 [Example A41, N(4)-[6-Chloro-2,4,8,22-tetraazatetracyclo[14.3.1.1(3,7).1(9,13)]docosa-1(20),3(22),4,6,9(21),10,12,16,18-nonaen-12-yl]-N(1)-(1-methyl-1H-indol-4-yl)piperidine-1,4-dicarboxamide trifluoroacetate] | 7.92 | 8.24 | 6.80 | 6.99 | 58%
2 | O=C(Nc1ccc2cc1CCc1cccc(c1)Nc1ncc(Cl)c(n1)N2)C1CCN(S(=O)(=O)c2ccccc2)CC1 [Example A42, N-[6-Chloro-2,4,8,22-tetraazatetracyclo[14.3.1.1(3,7).1(9,13)]docosa-1(20), 3(22),4,6,9(21),10,12,16,18-nonaen-12-yl]-1-(phenylsulfonyl)piperidine-4-carboxamide trifluoroacetate] | 7.62 | 7.68 | 7.24 | 6.74 | 34%
3 | O=C(Nc1ccc2cc1CCc1cccc(c1)Nc1ncc(Cl)c(n1)N2)C1CCN(C(=S)Nc2ccccc2)CC1 [Example A43, 1-(Anilinocarbonothioyl)-N-[6-chloro-2,4,8,22-tetraazatetracyclo[14.3.1.1(3,7).1(9,13)]docosa-1(20),3(22),4,6,9(21),10,12,16,18-nonaen-12-yl]piperidine-4-carboxamide trifluoroacetate] | 8.32 | 9.00 | 7.44 | 7.32 | 32%
4 | O=C(Nc1ccc2cc1CCc1cccc(c1)Nc1ncc(Cl)c(n1)N2)C1CCCNC1 (centres unmarked) [Example A44, N-[6-Chloro-2,4,8,22-tetraazatetracyclo[14.3.1.1(3,7).1(9,13)]docosa-1(20), 3(22),4,6,9(21),10,12,16,18-nonaen-12-yl]piperidine-3-carboxamide bis(trifluoroacetate)] | 7.28 | 7.59 | 7.15 | 6.77 | 21%
5 | O=C(Nc1ccc2cc1CCc1cccc(c1)Nc1ncc(Cl)c(n1)N2)[C@@H]1CCNC1 [Example A45, (3R)—N-[6-chloro-2,4,8,22-tetraazatetracyclo[14.3.1.1(3,7).1(9,13)]docosa-1(20),3(22),4,6,9(21),10,12,16,18-nonaen-12-yl]pyrrolidine-3-carboxamide bis(trifluoroacetate)] | 7.70 | 8.02 | 7.51 | 7.41 | 29%
6 | O=C(CC1CCNCC1)Nc1ccc2cc1CCc1cccc(c1)Nc1ncc(Cl)c(n1)N2 [Example A46, N-[6-Chloro-2,4,8,22-tetraazatetracyclo[14.3.1.1(3,7).1(9,13)]docosa-1(20), 3(22),4,6,9(21),10,12,16,18-nonaen-12-yl]-2-piperidin-4-ylacetamide bis(trifluoroacetate)] | 7.80 | 8.00 | 7.31 | 7.38 | 20%
7 | CC(=O)N1CCCC(C(=O)Nc2ccc3cc2CCc2cccc(c2)Nc2ncc(Cl)c(n2)N3)C1 (centres unmarked) [Example A47, 1-Acetyl-N-[6-chloro-2,4,8,22-tetraazatetracyclo[14.3.1.1(3,7).1(9,13)]docosa-1(20),3(22),4,6,9(21),10,12,16,18-nonaen-12-yl]piperidine-3-carboxamide trifluoroacetate] | 8.16 | 7.77 | 7.60 | 7.41 | 26%
